In paper PMC12136037, “Type II kinase inhibitors that target Parkinson’s disease–associated LRRK2” (Science Advances, 2025):

How the values were obtained:
Test in all cases: DSF 100 kinase selectivity screen;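 also: compound tested at 20 µM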
Type in all cases: binding
[1] = target: T1, ~100 representative kinases (Homo sapiens, UniProt O15164); conditions: Protein TIF1; DSF; average of three replicates
T1 construct: Recombinant protein kinase domains with a concentration of 2 μM
T1 sequence (O15164 1-1050): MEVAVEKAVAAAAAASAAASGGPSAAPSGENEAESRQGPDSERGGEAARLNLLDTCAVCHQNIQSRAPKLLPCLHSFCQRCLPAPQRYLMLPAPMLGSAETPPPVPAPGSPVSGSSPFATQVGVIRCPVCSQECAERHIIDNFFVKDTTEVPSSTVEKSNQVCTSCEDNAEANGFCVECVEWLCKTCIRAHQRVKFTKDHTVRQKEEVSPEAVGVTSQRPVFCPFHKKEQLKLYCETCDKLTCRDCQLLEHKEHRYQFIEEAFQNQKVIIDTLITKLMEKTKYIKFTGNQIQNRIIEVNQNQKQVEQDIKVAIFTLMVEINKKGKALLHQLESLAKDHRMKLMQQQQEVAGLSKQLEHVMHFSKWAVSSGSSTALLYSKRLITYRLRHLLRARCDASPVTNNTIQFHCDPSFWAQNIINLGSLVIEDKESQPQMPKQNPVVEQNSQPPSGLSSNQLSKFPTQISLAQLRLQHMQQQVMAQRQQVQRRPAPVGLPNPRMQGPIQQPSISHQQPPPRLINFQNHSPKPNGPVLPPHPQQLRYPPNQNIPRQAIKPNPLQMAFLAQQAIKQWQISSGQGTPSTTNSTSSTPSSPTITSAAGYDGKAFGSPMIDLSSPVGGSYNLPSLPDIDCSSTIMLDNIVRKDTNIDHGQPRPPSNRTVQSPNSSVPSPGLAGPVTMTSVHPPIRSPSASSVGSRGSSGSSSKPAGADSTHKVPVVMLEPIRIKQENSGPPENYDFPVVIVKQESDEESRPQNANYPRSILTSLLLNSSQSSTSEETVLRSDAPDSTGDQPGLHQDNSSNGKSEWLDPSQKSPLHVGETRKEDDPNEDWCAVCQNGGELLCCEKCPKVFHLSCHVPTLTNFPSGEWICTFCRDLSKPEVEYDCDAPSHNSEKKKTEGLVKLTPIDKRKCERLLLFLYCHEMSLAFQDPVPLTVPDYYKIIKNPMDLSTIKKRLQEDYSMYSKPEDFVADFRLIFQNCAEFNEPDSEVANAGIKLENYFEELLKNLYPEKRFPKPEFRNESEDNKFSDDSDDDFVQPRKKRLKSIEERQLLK
How it was run: (§1)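 Each kinase domain, at 2 μM, is mixed with 20 μM test compound and SYPRO Orange in Hepes (20 mM, pH 7.5) with 500 mM NaCl. Temperature is then raised at 3°C/min and fluorescence-monitored unfolding yields the melting temperature change, ΔTm in degrees Celsius.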

[2] = target: T2, ~100 representative kinases (Homo sapiens, UniProt O75385); conditions: Protein ULK1; DSF; average of three replicates
T2 construct: Recombinant protein kinase domains with a concentration of 2 μM
T2 sequence (O75385 1-1050): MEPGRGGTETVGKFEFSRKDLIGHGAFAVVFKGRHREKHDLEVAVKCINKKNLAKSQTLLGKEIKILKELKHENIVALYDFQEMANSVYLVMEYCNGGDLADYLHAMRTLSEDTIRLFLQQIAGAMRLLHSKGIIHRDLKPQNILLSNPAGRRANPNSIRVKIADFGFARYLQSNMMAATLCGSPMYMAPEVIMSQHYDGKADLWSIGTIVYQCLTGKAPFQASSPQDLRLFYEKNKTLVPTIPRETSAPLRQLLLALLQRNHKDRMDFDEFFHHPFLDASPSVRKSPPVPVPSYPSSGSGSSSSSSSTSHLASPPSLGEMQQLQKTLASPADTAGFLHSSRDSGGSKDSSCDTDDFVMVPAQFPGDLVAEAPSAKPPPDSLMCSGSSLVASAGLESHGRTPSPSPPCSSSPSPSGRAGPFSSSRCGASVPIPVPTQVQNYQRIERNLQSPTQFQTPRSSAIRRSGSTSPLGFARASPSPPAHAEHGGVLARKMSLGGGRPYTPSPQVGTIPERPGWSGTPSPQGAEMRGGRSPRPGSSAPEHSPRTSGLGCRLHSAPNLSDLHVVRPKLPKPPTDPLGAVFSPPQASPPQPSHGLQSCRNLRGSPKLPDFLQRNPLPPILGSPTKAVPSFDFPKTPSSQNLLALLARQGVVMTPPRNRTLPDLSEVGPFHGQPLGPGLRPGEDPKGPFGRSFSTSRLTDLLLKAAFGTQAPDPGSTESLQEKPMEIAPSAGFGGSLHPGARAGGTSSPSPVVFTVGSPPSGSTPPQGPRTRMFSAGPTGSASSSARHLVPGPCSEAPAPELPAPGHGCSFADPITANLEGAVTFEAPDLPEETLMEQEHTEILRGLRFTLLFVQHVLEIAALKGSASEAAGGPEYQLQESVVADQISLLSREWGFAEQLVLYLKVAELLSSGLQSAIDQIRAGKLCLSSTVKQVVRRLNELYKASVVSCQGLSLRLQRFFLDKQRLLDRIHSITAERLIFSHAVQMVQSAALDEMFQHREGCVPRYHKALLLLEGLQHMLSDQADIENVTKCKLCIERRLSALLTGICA
How it was run: as §1

[3] = target: T3, ~100 representative kinases (Homo sapiens, UniProt P22607); conditions: protein FGFR3; average of three replicates
T3 construct: Recombinant protein kinase domains with a concentration of 2 μM
T3 sequence (P22607 23-806): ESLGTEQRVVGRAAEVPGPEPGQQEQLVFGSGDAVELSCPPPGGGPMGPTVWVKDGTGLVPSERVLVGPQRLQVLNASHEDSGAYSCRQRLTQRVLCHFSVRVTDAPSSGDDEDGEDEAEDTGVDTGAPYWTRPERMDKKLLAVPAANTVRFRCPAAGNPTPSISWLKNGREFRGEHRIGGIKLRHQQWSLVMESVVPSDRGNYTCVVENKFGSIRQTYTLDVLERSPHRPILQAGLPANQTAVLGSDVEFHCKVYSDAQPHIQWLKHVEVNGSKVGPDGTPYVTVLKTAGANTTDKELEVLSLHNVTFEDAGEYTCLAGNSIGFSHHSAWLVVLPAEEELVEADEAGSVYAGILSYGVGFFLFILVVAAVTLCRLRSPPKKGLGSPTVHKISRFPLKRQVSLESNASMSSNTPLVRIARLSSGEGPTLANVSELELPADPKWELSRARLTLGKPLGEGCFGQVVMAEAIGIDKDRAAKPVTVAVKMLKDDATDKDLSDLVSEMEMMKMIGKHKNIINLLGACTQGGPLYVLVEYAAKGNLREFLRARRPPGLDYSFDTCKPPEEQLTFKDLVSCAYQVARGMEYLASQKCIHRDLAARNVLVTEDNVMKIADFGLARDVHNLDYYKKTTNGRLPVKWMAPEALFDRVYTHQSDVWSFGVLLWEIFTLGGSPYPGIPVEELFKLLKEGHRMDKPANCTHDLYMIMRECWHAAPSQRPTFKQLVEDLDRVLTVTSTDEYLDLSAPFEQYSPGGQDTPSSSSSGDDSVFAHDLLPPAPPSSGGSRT
How it was run: as §1

[4] = target: T4, ~100 representative kinases (Homo sapiens, UniProt Q16654); conditions: protein PDK4; average of three replicates
T4 construct: Recombinant protein kinase domains with a concentration of 2 μM
T4 sequence (Q16654 whole entry, the tested form may be a part): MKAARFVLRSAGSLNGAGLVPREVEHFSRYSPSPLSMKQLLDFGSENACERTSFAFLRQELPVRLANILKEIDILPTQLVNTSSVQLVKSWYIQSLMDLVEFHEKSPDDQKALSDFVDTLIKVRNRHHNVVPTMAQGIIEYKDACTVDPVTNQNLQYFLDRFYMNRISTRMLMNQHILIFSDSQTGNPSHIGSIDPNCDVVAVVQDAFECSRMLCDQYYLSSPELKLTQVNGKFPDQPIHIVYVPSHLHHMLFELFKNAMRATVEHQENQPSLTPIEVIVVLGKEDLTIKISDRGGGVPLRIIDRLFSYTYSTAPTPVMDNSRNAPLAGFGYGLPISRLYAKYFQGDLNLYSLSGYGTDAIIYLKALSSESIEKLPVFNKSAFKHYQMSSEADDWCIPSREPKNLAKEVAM
How it was run: as §1

SMILES	dTm [1] [K]	dTm [2] [K]	dTm [3] [K]	dTm [4] [K]
C[C@@H]1CN(c2cc(-c3n[nH]c4ccc(OC5(C)CC5)cc34)ncn2)C[C@H](C)O1 [MLi2]	0.28	0.01	0.31	-0.0742
Cn1cc(-c2c[nH]c3ncnc(N4CCOCC4)c23)cc1C#N [PFE-360]	0.08	1.48	2.13	-0.55
